What was measured:
FTase = FTase (Homo sapiens, UniProt P49354+P49356); assay: FTase inhibition (results not shown); format: biochemical; settings: concentrations up to 50 μM
GGTase-I = GGTase-I (Homo sapiens, UniProt P49354+P53609); assay: GGTase-I inhibition (results not shown); format: biochemical; settings: concentrations up to 50 μM
Rce1 protease = biological target: T1, Rce1 protease (Homo sapiens, UniProt Q9Y256); assay: Rce1 protease inhibition (results not shown); format: biochemical; settings: concentrations up to 50 μM
T1 construct: made in house; host or cells: Sf9 insect cells; membranes
T1 sequence (Q9Y256 1-329): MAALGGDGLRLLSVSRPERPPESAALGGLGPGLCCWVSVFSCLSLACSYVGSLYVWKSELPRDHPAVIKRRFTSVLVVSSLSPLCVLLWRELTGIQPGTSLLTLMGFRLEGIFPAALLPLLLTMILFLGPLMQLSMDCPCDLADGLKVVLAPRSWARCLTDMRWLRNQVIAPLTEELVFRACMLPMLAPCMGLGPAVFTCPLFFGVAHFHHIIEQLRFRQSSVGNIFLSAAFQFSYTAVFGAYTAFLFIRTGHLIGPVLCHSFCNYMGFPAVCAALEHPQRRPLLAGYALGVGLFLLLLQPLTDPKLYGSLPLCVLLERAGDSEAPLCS

Icmt−/−/ICMT cells = assay: Cell growth determination, Icmt−/− cells expressing human ICMT; format: cell-based, mouse; settings: 15, 20, 30 μM; 10% serum; six days
Description: FIGS. 2A-2C. […] Media and drug were replaced daily, and cell growth was monitored for six days. Data represent the mean and standard deviation of four replicate wells. (FIG. 2A) Icmt^+/+ cells; (FIG. 2B) Icmt^−/− cells; (C) Icmt^−/− cells stably transfected with a gene expressing human ICMT (Icmt^−/−/ICMT cells).
Cell growth assays were performed in a 96-well plate format. Briefly, 500 to 1000 cells were plated into 96-well plates. After the cells were allowed to attach for 24 h, media was removed and replaced with media containing either compound or vehicle. Media and drug were replaced every 24 h throughout the assay. Cell determinations were made at the times indicated in the respective figure by adding 19 μl of CellTiter 96 AqueousOne solution to each well followed by incubation of the plates in the dark at 37° C. for two hr after which the absorbance at 490 nm was read. Background absorbance from blank wells containing only media with compound or vehicle was subtracted from each test well. Typically, 3-6 replicate wells were employed for each point in each assay.

[1] = tested on: p42/44 MAPK phosphorylation in DKOB8 cells expressing GFP-Icmt; assay: EGF-stimulated MAPK activation in Icmt-overexpressing cells; format: cell-based; settings: 5 μM, three days, reduced-serum media; Icmt activity elevated 4-fold
Description: (§1) FIGS. 4A-4C. Overexpression of Icmt rescues EGF-stimulated MAPK activation and anchorage-independent growth in cysmethynil-treated cells. FIG. 4A. Creation of cell lines stably overexpressing Icmt. DKOB8 cells were engineered to stably express either GFP alone or a GFP-Icmt fusion protein. Membrane fractions from GFP and GFP-ICMT expressing lines were assayed for Icmt activity using the BFC assay. FIG. 4B. Overexpression of Icmt restores EGF-stimulated MAPK activation in cysmethynil-treated cells. […] Where indicated, cells were treated with EGF for the final 10 min prior to harvesting. Cell lysates containing equal amounts of protein were resolved on a 13% SDS-polyacrylamide gel and probed with antiphospho-p42/44 MAPK or, as a control, antiphospho NFκB antibody as indicated. FIG. 4C. […] After 3 weeks of growth, colonies were stained with MTT and imaged.
Half of the wells were then treated with EGF (10 ng/ml) and half with vehicle for 10 min. Cells were rinsed with PBS and harvested in SDS-PAGE loading buffer. Total cell lysates (30 μg protein) were resolved on 4-20% Tris-glycine polyacrylamide gels (Invitrogen). Proteins were transferred to nitrocellulose and probed with a mix of anti-phospho-Akt and anti-phospho-p42/44 MAPK antibodies, or with anti-tubulin or anti-phospho NFκB antibody (Cell Signaling Technology) as indicated. […]

[2] = tested on: DKOB8/GFP-Icmt colon cancer cells; assay: Soft agar growth assay, DKOB8/GFP-Icmt; format: cell-based; settings: 20 μM, three weeks; elevated Icmt activity
Description: as §1, with “imaged. Soft agar culture media was prepared with 10% FBS in 1× minimum essential medium (MEM) alpha. […] Cells were harvested by trypsinization at ˜80% confluence, mixed into top agar (10,000 cells/plate; 0.3% noble agar in soft agar culture media) and poured onto prepared plates. […] For each condition, triplicate samples (each consisting of three plates) were prepared. […]” for “imaged.”

[3] = tested on: α-tubulin in MDA-MB-231 breast cancer cells; assay: Immunoblot of control protein α-tubulin; format: cell-based; settings: 20 μM, 6 day treatment
Description: The impact of Icmt inhibition on function of the geranylgeranylated GTPases Rho and Rac in cells has been examined. This study was carried out in MD-MBA-231 breast cancer cells. Tumorigenesis and metastatic behavior of these cells is dependent on high levels of Rho GTPases in particular. […] Cells were harvested and lysates containing equal amounts of protein were resolved by SDS-PAGE and subjected to immunoblot analysis with specific antibodies to RhoA (FIG. 7A), or Rac1 (FIG. 7B). As a control, immunoblot analysis for α-tubulin was carried out on all samples.

Q: Which results are given for CCCCCCCCn1cc(CC(N)=O)c2cc(-c3cccc(C)c3)ccc21 [cysmethynil, 2-[5-(3-methylphenyl)-1-octyl-1H-indol-3-yl]acetamide]?
A: inhibition of FTase (FTase): did not inhibit; inhibition of GGTase-I (GGTase-I): did not inhibit; inhibition of Rce1 protease (Rce1 protease): did not inhibit; cell growth (Icmt−/−/ICMT cells): regained sensitivity; blockade of EGF-stimulated MAPK activation [1]: protect the cells from cysmethynil blockade; ability of cells to form colonies in soft agar [2]: rescue the ability of the cells to form colonies; level of control protein α-tubulin [3]: only marginally affected
